One assay addresses T1, CreTPT2 (His-CreTPT2) (Chlamydomonas reinhardtii, UniProt A0A2K3DMX1).
T1 sequence (A0A2K3DMX1 71-401): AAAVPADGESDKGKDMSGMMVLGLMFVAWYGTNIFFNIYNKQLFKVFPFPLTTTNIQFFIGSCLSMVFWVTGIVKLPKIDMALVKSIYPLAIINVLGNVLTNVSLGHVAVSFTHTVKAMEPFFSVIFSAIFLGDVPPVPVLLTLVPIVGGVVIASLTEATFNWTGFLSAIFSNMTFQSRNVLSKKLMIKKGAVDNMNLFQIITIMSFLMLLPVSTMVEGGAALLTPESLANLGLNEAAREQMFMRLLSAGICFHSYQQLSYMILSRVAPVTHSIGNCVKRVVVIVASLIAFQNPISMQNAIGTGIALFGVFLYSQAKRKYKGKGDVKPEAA
Nature of the assay: inhibition of […]Pi uptake into proteoliposomes. The class given is cell-based. Conditions: competitive; 0.25 mM external Pi, 30 mM Pi inside, competitor 0.05-5 mM, 4 min.

Another assay addresses T2, CreTPT3 (His-CreTPT3) (Chlamydomonas reinhardtii, UniProt A8HN02).
T2 sequence (A8HN02 61-406): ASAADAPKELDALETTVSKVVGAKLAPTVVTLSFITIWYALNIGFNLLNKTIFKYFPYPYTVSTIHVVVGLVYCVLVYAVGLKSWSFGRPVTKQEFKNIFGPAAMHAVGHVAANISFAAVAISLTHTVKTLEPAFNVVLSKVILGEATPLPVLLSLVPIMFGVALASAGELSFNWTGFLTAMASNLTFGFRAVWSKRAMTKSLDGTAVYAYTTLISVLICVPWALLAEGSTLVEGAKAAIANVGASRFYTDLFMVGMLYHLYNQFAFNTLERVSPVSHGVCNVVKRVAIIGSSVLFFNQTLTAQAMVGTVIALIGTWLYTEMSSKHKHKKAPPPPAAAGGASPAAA
The assay is described as follows: inhibition of […]Pi uptake into proteoliposomes. The class given is cell-based. Conditions: competitive; 0.25 mM external Pi, 30 mM Pi inside, competitor 0.05-5 mM, 4 min.

For `O=C(O)[C@H](O)COP(=O)(O)O` [3-PGA], the Ki at CreTPT2 (His-CreTPT2) worked out at 780 ± 190 µM; on CreTPT3 (His-CreTPT3) it was 790 ± 122 µM.
The like results for `O=C(CO)COP(=O)(O)O` [DHAP] were, in that order, 710 ± 120 µM and 570 ± 13 µM.

Usually Ki stands for the dissociation constant of the complex between target and ligand, obtained from inhibition or displacement. Lower therefore signals tighter binding.

For the origin of these results see publication doi:10.1101/2022.07.25.501471v5 (biorxiv, 2023).
